Test in all cases: DTP human tumour cell line panel, 48 h
In assay [1] the test system is 786-0 renal.
The subject of assay [2] is ACHN renal.
Assay [3] concerns DU-145 prostate.
Assay [4] has as its system HOP-62 NSCLC.
The subject of assay [5] is OVCAR-4 ovarian.
The subject of assay [6] is RXF 393 renal.
The test system of assay [7] is SN12C renal.
Assay [8] concerns UO-31 renal.
Assay [9] relates to HCC-2998 colon.
Assay [10] concerns HL-60(TB) leukemia.

SMILES strings stand for the structures. Values joined by “and” are separate entries in the source; they are usually repeats but may differ in a detail not shown here. Equal values may be shown once.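 Cultured in 96-well plates, cells were exposed to test compound for 48 hours across five concentrations. GI50 marks 50% less growth. At the TGI there is no net growth.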

For orientation: TGI means the concentration at which net growth stops. Low readings indicate greater sensitivity of the cells, high ones lower sensitivity of the cells. As for `Nc1nc(-c2ccccc2N=NN2CCCC2)nc2ccccc12`, the TGI in [1] came to 4.77 µM; in [2] it was 11.7 µM; in [3] it was 16.5 µM; in [4], 5.11 µM; in assay [5] it was 19.1 µM; in [6] it was 20.4 µM. In addition, the TGI in assay [7] and in assay [8] was 3.43 µM in each case.
`CC1OC2=N[C@@H]1C(=O)N[C@@H](C(C)C)C1=N[C@H](C(=O)N[C@@H](C(C)C)C3=N[C@H](C(=O)N[C@@H](C(C)C)C4=N[C@H](C(=O)N[C@H]2C(C)C)C(C)O4)C(C)O3)C(C)O1` (stereo partly specified): the TGI in [1], in assay [2], in assay [3], in assay [9], in [10] and in assay [4] was more than 10 µM throughout. Besides, the TGI in assay [5], in assay [6], in [7] and in [8] was more than 10 µM throughout.
For the molecule `COc1ccc(/C=c2\[nH]c3nc(=O)c(N4CCOCC4)c(N)n3c2=O)cc1`, the TGI in assay [1], in assay [2], in assay [3], in assay [9], in assay [10] and in [5] was more than 100 µM each time. Besides, the TGI in [6], in assay [7] and in assay [8] was more than 100 µM throughout.
`C=C(CCC(C)C1CCC2C3=C(C(=O)CC21C)C1(C)CCC(=O)[C@@H](C)C1CC3=O)C(C)C(=O)O` (stereo partly specified): the TGI in assay [1] was 37.8 µM; in assay [2], 88.6 µM; in [3], more than 100 µM; in assay [9], more than 100 µM; in assay [10], 32.6 µM; in [4], more than 100 µM. Further, the TGI was more than 100 µM in [5], 57.4 µM in assay [6], more than 100 µM in [7] and 32.4 µM in assay [8].
Regarding `CC(=O)OCC1OC(n2c3c(c(-c4cccc5ccccc45)c(C#N)c2=S)CCCC3)C(OC(C)=O)C(OC(C)=O)C1OC(C)=O` (stereo unspecified), the TGI in assay [1], in [2], in [3], in assay [9], in assay [10] and in assay [4] was more than 100 µM throughout. In addition, the total growth inhibition concentration (TGI) in [5] is more than 100 µM; in [6] it was more than 100 µM; in assay [7], more than 100 µM; in assay [8] it was 62.2 µM.
On to `Cc1ccc(C(C)(C)C[P+](C)(c2ccccc2)c2ccccc2)cc1`, for which the TGI in assay [9] is more than 70.3 µM; in assay [10], 7.56 µM; in [4], 75.9 µM; in [5] it was 63.7 µM; in assay [6], more than 94.1 µM; in [7], more than 86.3 µM. The molecule also registered a TGI in [8] of more than 85 µM.
By GI50 is commonly meant the concentration giving 50% growth inhibition. Take `Clc1ccc(N2N=C(c3cccc(Nc4ccncc4)c3)CC2c2ccc3c(c2)OCO3)cc1` (stereo unspecified): the GI50 in assay [2] is 1.65 µM; in assay [3], 1.84 µM; in assay [9], 1.79 µM; in [10], 1.93 µM; in assay [5] it was 1.69 µM; in [7], 1.71 µM. For the same molecule, the GI50 in assay [8] is 1.36 µM. Moreover, the TGI was determined as 3.13 µM in [2]; 3.39 µM in assay [3]; 3.2 µM in [9]; 4.16 µM in assay [10]; 3.25 µM in [5]; 3.25 µM in [7]. The molecule also showed a TGI in [8] of 2.86 µM.
Take `C/C(=N\NC(=S)N1CCCCC1)c1cccc(C)n1`: the TGI in assay [1] amounted to 1.19 µM; in [2], 2.67 µM; in [3], 2.22 µM; in assay [9], 21.8 µM; in [5] it was 51.6 µM; in [6], 14.4 µM. For the same molecule, the TGI in [7] worked out at 12.1 µM; in assay [8], 1.53 µM.
With `O=CC(O)C(O)C(O)C(O)C(=O)NCCCCCCCCCCCCNC(=O)C(O)C(O)C(O)C(O)C=O` (stereo unspecified), the TGI in [1], in [2], in [3], in assay [9], in [10] and in assay [4] was more than 100 µM each time. For the same molecule, the TGI in assay [5], in [6] and in assay [8] was more than 100 µM throughout.
Turning to `CC1(C)OCC(C(O)C2OC(C)(C)OC2C=O)O1` (stereo unspecified), the total growth inhibition concentration (TGI) in [1], in [2], in [3], in assay [4], in assay [5] and in [7] was more than 100 µM each time. Further, the TGI in [8] is more than 100 µM.
`Cc1nc2c3c(ncn2n1)Oc1c(c(-c2ccccc2)nn1-c1ccccc1)C3c1ccc(Cl)cc1` (stereo unspecified): the TGI in [1], in [2], in [3], in assay [9], in assay [4] and in assay [5] was more than 100 µM each time. In addition, the TGI in assay [6], in assay [7] and in assay [8] was more than 100 µM each time.
For the molecule `COC1OC(Cc2nnc(C)o2)C(OCc2ccccc2)C(OCc2ccccc2)C1OCc1ccccc1` (stereo unspecified), the total growth inhibition concentration (TGI) was more than 100 µM in [1]; 76.8 µM in [2]; more than 100 µM in [3]; 76.3 µM in assay [10]; more than 100 µM in assay [4]; more than 100 µM in assay [5]. For the same molecule, the TGI in [6] is 48.2 µM; in assay [7], 85.3 µM; in [8] it was more than 100 µM.
Take `O=[N+]([O-])c1ccc(S[C@@H]2[C@H]3c4c(-c5ccccc5)[nH]c(-c5ccccc5)c4[C@@H]2C[C@H]3Cl)cc1`: the TGI in assay [1] was 23.8 µM; in assay [2], more than 100 µM; in assay [3], 17.3 µM; in [10], 24.3 µM; in assay [4] it was 67.6 µM; in assay [5], 5.4 µM. Moreover, the TGI stood at 4.3 µM in assay [6], 22.2 µM in assay [7] and 28.4 µM in [8].
On to `CCc1c(Cc2cccc3ccccc23)n2c(nc1=O)SCC2OCCO` (stereo unspecified), for which the TGI in assay [1], in assay [2], in [3], in [9], in [10] and in assay [5] was more than 100 µM throughout. Further, the TGI in [6], in assay [7] and in [8] was more than 100 µM throughout.
Consider `Clc1ccc(Cc2nc3ccccc3nc2-c2cccc(Br)c2)cc1`, for which the total growth inhibition concentration (TGI) in assay [1] came to 3.48 µM; in [2], 3.44 µM; in [3], 24.5 µM; in [9] it was 3.36 µM; in assay [10], 6.49 µM; in assay [4] it was 36.1 µM. Also, the TGI in assay [6] was found to be 6.26 µM; in [7], 10.1 µM; in assay [8] it was 3.38 µM.
`C/C(=C\c1ccccn1)c1ccccn1`: the TGI in [1], in [2], in [3], in assay [9], in [4] and in assay [5] was more than 100 µM throughout. Besides, the TGI in assay [6] and in assay [8] was more than 100 µM each time.
Turning to `O=C(CCN1CCCC1)Nc1ccc2sc3ccccc3c(=O)c2n1`, the total growth inhibition concentration (TGI) in assay [1] is 17.5 µM; in assay [2], 16.3 µM; in [3] it was 25.7 µM; in assay [9] it was 17 µM; in assay [10] it was 16.3 µM; in assay [4], 19.6 µM. Moreover, the TGI in assay [5] is 21.7 µM; in assay [7], 21.3 µM; in [8], 16.3 µM.
As to `COc1cccc(CC(C)NCC(O)c2ccc(O)c(O)c2)c1` (stereo unspecified), the TGI in assay [1], in assay [2], in [3], in [4], in assay [5] and in assay [6] was more than 100 µM throughout. The TGI in assay [7] is 83.8 µM; in assay [8], more than 100 µM.
As to `O=C(NCc1cccc(C(F)(F)F)c1)c1cc2sccc2nc1C(F)(F)F`, the concentration for total growth inhibition (TGI) was 73.7 µM in assay [1]; more than 100 µM in [2]; more than 100 µM in [4]; more than 100 µM in assay [5]; more than 100 µM in assay [6]; more than 100 µM in assay [7]. This molecule also gave a concentration for total growth inhibition (TGI) in assay [8] of more than 100 µM.
In the case of `Cn1nc2n(c1=O)CCCN2`, the TGI in [1], in [2], in assay [3], in assay [9], in assay [10] and in [4] was more than 100 µM in each case. The TGI in [5], in assay [6] and in [7] was more than 100 µM in each case.
Regarding `N#Cc1nc(CCCCCN2C(=O)c3ccccc3C2=O)oc1N`, the TGI in [1], in [2], in [3], in assay [9], in assay [4] and in [5] was more than 100 µM throughout. The TGI in assay [6], in assay [7] and in assay [8] was more than 100 µM in each case.
Regarding `NC(=S)N/N=C\c1ccc(OCc2cccc(COc3ccc(/C=N/NC(N)=S)cc3)n2)cc1`, the TGI in [1], in assay [2], in [3], in assay [10], in assay [4] and in assay [5] was more than 100 µM each time. In addition, the TGI in assay [6] is 47.9 µM; in assay [7], more than 100 µM; in assay [8] it was more than 100 µM.
Regarding `[Cl][Pt+2][Cl].[NH-]C1CCCCC1[NH-]` (stereo unspecified), the GI50 in assay [9] was 42.6 µM and 17.2 µM and 4.67 µM; in assay [10], 0.884 µM and 1.46 µM and 0.199 µM; in assay [4], 53.7 µM and > 100 µM and 22.3 µM; in assay [5], 14.5 µM and 9.24 µM and 2.19 µM; in assay [6], > 57.9 µM and 66.8 µM and > 28.6 µM; in [7] it was 8.78 µM and 6.22 µM and 2.62 µM. The TGI was > 100 µM and 24.2 µM in assay [9]; 4.49 µM and 8.45 µM and 1.89 µM in assay [10]; more than 100 µM in assay [4]; 64.2 µM and 90.5 µM and 47.1 µM in assay [5]; more than 100 µM in [6]; more than 100 µM in assay [7]. This molecule also came in with a TGI in assay [8] of more than 100 µM.
`COC(=O)C1CCC(=O)N1C(=O)Cc1ccc(OC)cc1` (stereo unspecified): the concentration for total growth inhibition (TGI) in assay [2], in assay [5], in assay [7] and in assay [8] was more than 100 µM each time.
Consider `Cc1ccccc1-n1c(C)nc2c1C(=O)c1ccccc1C2=O`, for which the TGI in [1] was more than 100 µM; in assay [2], more than 100 µM; in assay [9], more than 100 µM; in assay [10] it was 87.5 µM; in assay [4], more than 100 µM; in assay [5], more than 100 µM. Moreover, the TGI in assay [6], in assay [7] and in [8] was more than 100 µM in each case.
With `N/N=C1/C2CN3CCN(C2)CC1(c1ccc([N+](=O)[O-])cc1)C3`, the TGI in [1], in assay [2], in assay [3], in assay [10], in [4] and in assay [5] was more than 100 µM in each case. Besides, the TGI in assay [6], in [7] and in assay [8] was more than 100 µM in each case.
Regarding `Nc1cccc2c1C(=O)c1cccc(N)c1C2=O`, the TGI in [1], in [2], in assay [9], in [4], in [5] and in assay [6] was more than 100 µM each time. The concentration for total growth inhibition (TGI) in assay [7] and in assay [8] was more than 100 µM each time.
Regarding `CN(C)CCNC(=O)c1ccc(NCCCN(C)CCCNc2ccc3c(=O)n(CCN(C)C)c(=O)n4c5ccccc5c(=O)c2c34)c2c(=O)c3ccccc3[nH]c12`, the TGI in assay [1] was 0.11 µM; in assay [2], 0.653 µM; in assay [9], 0.146 µM; in [10], 0.273 µM; in assay [4], 0.309 µM; in assay [5], 0.197 µM. Besides, the TGI in assay [6] is 0.271 µM; in assay [7], 0.262 µM; in assay [8], 0.301 µM.
For `C/C=C\C(CC(=O)NCCc1cn(C(=O)OCc2ccccc2)c2ccccc12)CC(=O)OC` (stereo unspecified), the concentration for total growth inhibition (TGI) in [1], in assay [2], in [3], in assay [9], in assay [4] and in assay [5] was more than 100 µM each time. Besides, the TGI in assay [6] and in assay [8] was more than 100 µM in each case.

The values are drawn from PubChem BioAssay (NCI).
